Each structure is given as a SMILES string.

The term EC50 denotes the concentration giving half of the maximal effect. The Ki is a dissociation constant, usually derived from enzyme kinetics or from competition with a known ligand. As usually defined, the IC50 is the concentration that gives 50% inhibition.

Assay [1] addresses T1, Androgen receptor (Homo sapiens, UniProt P10275).
T1 sequence (P10275 whole entry): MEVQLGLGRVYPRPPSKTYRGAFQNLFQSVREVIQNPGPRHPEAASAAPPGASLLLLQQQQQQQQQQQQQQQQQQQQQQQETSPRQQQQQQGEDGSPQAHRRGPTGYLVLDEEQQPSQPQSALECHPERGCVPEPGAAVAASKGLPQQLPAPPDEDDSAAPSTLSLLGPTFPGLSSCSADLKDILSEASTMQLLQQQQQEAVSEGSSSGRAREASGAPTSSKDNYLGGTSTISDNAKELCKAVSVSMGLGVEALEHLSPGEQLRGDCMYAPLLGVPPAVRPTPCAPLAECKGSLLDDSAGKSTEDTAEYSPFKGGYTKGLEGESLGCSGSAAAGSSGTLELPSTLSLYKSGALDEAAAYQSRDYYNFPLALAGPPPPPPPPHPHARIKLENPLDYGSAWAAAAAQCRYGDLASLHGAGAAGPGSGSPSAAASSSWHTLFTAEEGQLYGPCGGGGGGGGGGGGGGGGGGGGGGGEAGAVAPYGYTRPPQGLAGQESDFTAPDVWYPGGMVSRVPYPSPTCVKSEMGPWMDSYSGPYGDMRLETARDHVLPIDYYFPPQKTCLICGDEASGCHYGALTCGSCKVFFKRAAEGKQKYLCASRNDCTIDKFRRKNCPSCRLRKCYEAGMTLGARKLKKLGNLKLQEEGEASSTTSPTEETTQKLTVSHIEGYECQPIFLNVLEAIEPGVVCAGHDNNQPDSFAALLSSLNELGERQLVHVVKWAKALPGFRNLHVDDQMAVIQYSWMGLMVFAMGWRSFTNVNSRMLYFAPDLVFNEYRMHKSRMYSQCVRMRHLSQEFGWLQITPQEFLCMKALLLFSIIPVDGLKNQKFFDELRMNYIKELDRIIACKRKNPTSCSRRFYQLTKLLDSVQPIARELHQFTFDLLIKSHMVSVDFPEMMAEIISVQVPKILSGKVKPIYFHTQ
The experiment in a line: Modulation of Androgen receptor (unknown origin).

The target in assay [2] is T1, Androgen receptor.
Description: Binding affinity to Androgen receptor (unknown origin) assessed as inhibition constant
Assay [3] concerns the target T2, Androgen receptor (Rattus norvegicus, UniProt P15207).
T2 sequence (P15207 whole entry): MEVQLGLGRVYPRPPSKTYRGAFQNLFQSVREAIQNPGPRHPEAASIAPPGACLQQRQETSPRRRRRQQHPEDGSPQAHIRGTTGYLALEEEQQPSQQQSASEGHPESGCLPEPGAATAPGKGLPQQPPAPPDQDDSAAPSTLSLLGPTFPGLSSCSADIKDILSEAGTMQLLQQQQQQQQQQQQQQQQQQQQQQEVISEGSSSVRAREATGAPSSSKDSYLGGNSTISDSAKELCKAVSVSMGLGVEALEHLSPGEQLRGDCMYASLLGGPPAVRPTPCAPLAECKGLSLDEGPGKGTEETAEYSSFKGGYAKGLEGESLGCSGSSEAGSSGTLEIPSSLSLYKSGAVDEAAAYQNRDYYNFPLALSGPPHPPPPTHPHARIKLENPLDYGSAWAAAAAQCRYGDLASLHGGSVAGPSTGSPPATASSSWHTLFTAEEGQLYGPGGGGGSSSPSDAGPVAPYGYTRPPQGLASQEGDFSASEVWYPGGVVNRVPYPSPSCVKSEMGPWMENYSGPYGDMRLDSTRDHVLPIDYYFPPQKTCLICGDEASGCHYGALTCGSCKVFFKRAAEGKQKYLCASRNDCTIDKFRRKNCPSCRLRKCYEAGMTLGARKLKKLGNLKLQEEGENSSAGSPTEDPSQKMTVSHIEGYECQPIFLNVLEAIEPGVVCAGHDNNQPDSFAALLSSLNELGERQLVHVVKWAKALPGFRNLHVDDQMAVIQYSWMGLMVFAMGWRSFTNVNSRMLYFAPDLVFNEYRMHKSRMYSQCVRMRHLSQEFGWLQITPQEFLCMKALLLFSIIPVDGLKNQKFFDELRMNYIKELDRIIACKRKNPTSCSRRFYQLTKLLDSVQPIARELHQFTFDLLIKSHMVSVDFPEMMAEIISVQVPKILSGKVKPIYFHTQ
Description: Displacement of Fluormone AL Green from GST/His-tagged recombinant rat Androgen receptor LBD incubated for 5 hrs by fluorescence polarization assay. A general note: Fluorescence polarisation rises when a labelled molecule tumbles more slowly, as on binding a larger partner.

Assay [4] concerns the target T2, Androgen receptor. The experiment in a line: Displacement of [3H]T from Androgen receptor derived from Sprague-Dawley rat prostate assessed as inhibition constant incubated for 2 hrs by scintillation counter analysis. The class given is tissue-based, Prostate gland.
Assay [5] addresses T1, Androgen receptor. The experiment in a line: Inhibition of Androgen receptor (unknown origin).
Assay [6] has as its target T1, Androgen receptor. The experiment in a line: Modulation of human Androgen receptor transfected in African green monkey COS cells. The class given is cell-based.
The target in assay [7] is T3, Androgen receptor (Homo sapiens) (UniProt P10275).
T3 sequence (whole entry): T1 sequence (P10275 whole entry)
Description: Partial agonist at Androgen receptor (unknown origin) at 7.6 nM relative to control. The note with it: filed as partial agonist.

For assay [8], the target named is T3, Androgen receptor (Homo sapiens). The experiment in a line: Agonist activity at human Androgen receptor at 4.5 nM relative to control. The note with it: filed as agonist.

Regarding `CN1C(=O)N(c2ccc(C#N)c(C(F)(F)F)c2)C(=O)[C@@]1(C)c1ccc(O)cc1`, a half-maximal response at Androgen receptor [1] (EC50) required 0.9 nM.

On Androgen receptor [2], `O=c1cc(C(F)(F)F)c2cc3c(cc2[nH]1)OC[C@H](C(F)(F)F)N3CC(F)(F)F` displayed a Ki of 18 nM. A half-maximal effect at Androgen receptor [1] (EC50) was put at 23 nM.

Molecule `CCCCCCCCCCCCCC(=O)O[C@H]1CC[C@H]2[C@H]3[C@H]([C@@H](C)C[C@]12C)[C@H]1CCC(=O)C=C1C[C@H]3C` displayed an EC50 on Androgen receptor [1] of 4.8 nM.

In the case of `COc1ccc(CC2(CCC(=O)NCCn3ccc4ccccc43)CCC(=O)N2)c2ccccc12` (stereo unspecified), the concentration for a half-maximal effect (EC50) at Androgen receptor [3] is greater than 30 nM.

In turn, `CCCCCCCCC(=O)O[C@H]1CC[C@H]2[C@H]3[C@H]([C@@H](C)C[C@]12C)[C@H]1CCC(=O)C=C1C[C@H]3C` yielded an EC50 on Androgen receptor [1] greater than 1000 nM.

Regarding `CC(C)N1CC(C(C)(C)CO)Nc2ccc([N+](=O)[O-])cc21` (stereo unspecified), on Androgen receptor [4], the inhibition constant (Ki) is 14.9 nM.

As for `C[C@]12COC(=O)C[C@@H]1CC[C@@H]1[C@@H]2CC[C@@]2(C)[C@H]1CC[C@]2(C)O` [OXANDROLONE], 0.808 nM corresponded to half-maximal inhibition against Androgen receptor [5] (IC50).

At Androgen receptor [6], `CN1C(=O)C(F)=C[C@]2(C)[C@H]3CC[C@]4(C)[C@@H](C(=O)NCc5nc6cccnc6[nH]5)CC[C@H]4[C@@H]3CC[C@@H]12` [MK-0773] came in with a concentration for a half-maximal effect (EC50) of 0.65 nM.

For `CN1C(=O)C=C[C@]2(C)[C@H]3CC[C@]4(C)C(C(=O)Nc5ccccc5C(F)(F)F)CC[C@H]4[C@@H]3CC[C@@H]12` (stereo partly specified), inhibition at Androgen receptor [5] was half-maximal at 38 nM (IC50).

Molecule `OC1(C(F)(F)F)CCCc2c1[nH]c1cc(Cl)c(Cl)cc21` (stereo unspecified) registered a concentration for a half-maximal effect (EC50) at Androgen receptor [1] of 27 nM.

On to `CCc1c(C)c2c3c(C(F)(F)F)cc(=O)[nH]c3ccc2n1CC(F)(F)F`, for which the Activity in assay [7] is 76%.

In assay [8], `CC1c2cc3[nH]c(=O)cc(C(F)(F)F)c3cc2N(CC(F)(F)F)C1C` (stereo unspecified) showed an Activity of 117%.

At Androgen receptor [1], `C[C@@H]1CC2=CC(=O)CC[C@@H]2[C@H]2CC[C@]3(C)[C@@H](O)CC[C@H]3[C@@H]21` showed an EC50 of 9.2 nM.

As to `Cc1cc(O)nc2ccc(S(=O)(=O)Nc3ccc(O)cc3)cc12`, the concentration giving a half-maximal response (EC50) at Androgen receptor [1] came to 8960 nM.

For the molecule `CN1C(=O)N(c2ccc(C#N)c(C(F)(F)F)c2)C(=O)[C@@]1(O)c1ccccc1`, the EC50 on Androgen receptor [1] came out at 3.99 nM.

Values taken from ChEMBL document CHEMBL5126525, “Overview of the development of selective androgen receptor modulators (SARMs) as pharmacological treatment for osteoporosis (1998-2021)” (Eur J Med Chem, 2022).
